Source: PMC5908784, “Extracellular loops 2 and 3 of the calcitonin receptor selectively modify agonist binding and efficacy” (Biochemical Pharmacology, 2018)
Positions count from the first letter of the chain named. Where a SMILES comes first, the peptide text is derived from it. Bridges are numbered along the chain shown (N, C = ends).

Assays:
Assay in all cases: ERK1/2 phosphorylation
Format in all cases: cell-based
Settings in all cases: CV1-FlpIn cells, mean ± S.E.M.; for Emax: pERK maximal response; for EC50: pERK, three-parameter logistic fit
hCTR K366A = biological target: T1, hCTR K366A (Homo sapiens, UniProt P30988, K366A)
T1 construct: c-Myc (N); expressed in transfected cells
T1 sequence (P30988 25-474 K366A): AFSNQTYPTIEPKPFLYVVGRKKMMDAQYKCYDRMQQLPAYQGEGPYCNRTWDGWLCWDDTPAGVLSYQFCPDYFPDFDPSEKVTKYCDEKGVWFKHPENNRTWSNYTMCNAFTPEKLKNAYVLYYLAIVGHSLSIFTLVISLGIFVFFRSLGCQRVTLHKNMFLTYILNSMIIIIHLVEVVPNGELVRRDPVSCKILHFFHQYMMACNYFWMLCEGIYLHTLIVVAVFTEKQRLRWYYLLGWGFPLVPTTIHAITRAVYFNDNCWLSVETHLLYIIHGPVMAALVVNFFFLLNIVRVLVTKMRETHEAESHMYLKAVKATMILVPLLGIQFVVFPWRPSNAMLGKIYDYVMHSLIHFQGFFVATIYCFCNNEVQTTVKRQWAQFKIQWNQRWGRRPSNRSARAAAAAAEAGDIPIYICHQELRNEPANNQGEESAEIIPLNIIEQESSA
Method in brief: (§1)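 First, cells (2.5 × 10^4 per well) were plated and left overnight. Agonist concentration-response data were then scaled to the peak signal given by 10% FBS at 6 min. Finally, a 3-parameter logistic equation yielded EC50 and Emax.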

hCTR S364A = biological target: T2, hCTR S364A (Homo sapiens, UniProt P30988, S364A)
T2 construct: c-Myc (N); expressed in transfected cells
T2 sequence (P30988 25-474 S364A): T1 sequence (P30988 25-474 K366A) with S340A, A342K
Method in brief: as §1

hCTR H296A = biological target: T3, hCTR H296A (Homo sapiens, UniProt P30988, H296A)
T3 construct: c-Myc (N); expressed in transfected cells
T3 sequence (P30988 25-474 H296A): T1 sequence (P30988 25-474 K366A) with H272A, A342K
Method in brief: as §1

hCTR M367A = biological target: T4, hCTR M367A (Homo sapiens, UniProt P30988, M367A)
T4 construct: c-Myc (N); expressed in transfected cells
T4 sequence (P30988 25-474 M367A): T1 sequence (P30988 25-474 K366A) with A342K, M343A
Method in brief: as §1

hCTR R362A = biological target: T5, hCTR R362A (Homo sapiens, UniProt P30988, R362A)
T5 construct: expressed in transfected cells
T5 sequence (P30988 25-474 R362A): T1 sequence (P30988 25-474 K366A) with R338A, A342K
Method in brief: as §1

Row | Compound | Emax (hCTR K366A) [%] | EC50 (hCTR K366A) [nM] | Emax (hCTR S364A) [%] | EC50 (hCTR S364A) [nM] | Emax (hCTR H296A) [%] | EC50 (hCTR H296A) [nM] | Emax (hCTR M367A) [%] | EC50 (hCTR M367A) [nM] | Emax (hCTR R362A) [%] | EC50 (hCTR R362A) [nM]
1 | CC(C)C[C@H](NC(=O)CNC(=O)[C@H](C)NC(=O)[C@H](CC(C)C)NC(=O)[C@H](CCCNC(=N)N)NC(=O)[C@H](Cc1cnc[nH]1)NC(=O)[C@@H](NC(=O)[C@@H](NC(=O)[C@@H]1CSSC[C@H](NC(=O)[C@H](C)N)C(=O)N[C@@H](CC(=O)O)C(=O)N[C@@H]([C@@H](C)O)C(=O)N[C@@H](C)C(=O)N[C@@H]([C@@H](C)O)C(=O)N1)C(C)C)[C@@H](C)O)C(=O)N[C@@H](CC(C)C)C(=O)N[C@@H](CO)C(=O)N[C@@H](CCCNC(=N)N)C(=O)N[C@@H](CO)C(=O)NCC(=O)NCC(=O)N[C@H](C(=O)N[C@H](C(=O)N[C@@H](CCCCN)C(=O)N[C@@H](CC(N)=O)C(=O)N[C@@H](CC(N)=O)C(=O)N[C@@H](Cc1ccccc1)C(=O)N[C@H](C(=O)N1CCC[C@H]1C(=O)N[C@H](C(=O)N[C@@H](CC(N)=O)C(=O)N[C@H](C(=O)NCC(=O)N[C@@H](CO)C(=O)N[C@@H](CCCCN)C(=O)N[C@@H](C)C(=O)N[C@@H](Cc1ccccc1)C(N)=O)C(C)C)[C@@H](C)O)C(C)C)C(C)C)C(C)C [hαCGRP] | 146 ± 17 | 40.7 | 54 ± 6 | 10.7 | 77 ± 11 | 91.2 | 78 ± 12 | 107 | 31 ± 8 | 112
2 | CC[C@H](C)[C@H](NC(=O)[C@H](C)NC(=O)[C@@H](NC(=O)[C@H](CCC(N)=O)NC(=O)[C@@H]1CCCN1C(=O)[C@H](Cc1ccccc1)NC(=O)[C@@H](NC(=O)[C@H](Cc1c[nH]cn1)NC(=O)[C@H](Cc1ccccc1)NC(=O)[C@H](CCCCN)NC(=O)[C@H](CC(N)=O)NC(=O)[C@H](Cc1ccccc1)NC(=O)[C@H](CC(=O)O)NC(=O)[C@H](CCC(N)=O)NC(=O)[C@@H](NC(=O)[C@H](Cc1ccc(O)cc1)NC(=O)[C@@H](NC(=O)CNC(=O)[C@H](CC(C)C)NC(=O)[C@H](CCSC)NC(=O)[C@@H]1CSSC[C@H](N)C(=O)NCC(=O)N[C@@H](CC(N)=O)C(=O)N[C@@H](CC(C)C)C(=O)N[C@@H](CO)C(=O)N[C@@H]([C@@H](C)O)C(=O)N1)[C@@H](C)O)[C@@H](C)O)[C@@H](C)O)[C@@H](C)O)C(=O)NCC(=O)N[C@H](C(=O)NCC(=O)N[C@@H](C)C(=O)N1CCC[C@H]1C(N)=O)C(C)C [hCT] | 186 ± 16 | – | 135 ± 10 | – | 148 ± 8 | – | 127 ± 7 | – | 64 ± 7 | –
3 | CC(C)C[C@H](NC(=O)[C@H](CC(N)=O)NC(=O)[C@H](CC(N)=O)NC(=O)[C@H](CO)NC(=O)[C@H](CO)NC(=O)[C@H](CCCNC(=N)N)NC(=O)[C@@H](NC(=O)[C@H](CC(C)C)NC(=O)[C@H](Cc1ccccc1)NC(=O)[C@H](CC(N)=O)NC(=O)[C@H](C)NC(=O)[C@H](CC(C)C)NC(=O)[C@H](CCCNC(=N)N)NC(=O)[C@H](CCC(N)=O)NC(=O)[C@@H](NC(=O)[C@H](C)NC(=O)[C@@H]1CSSC[C@H](NC(=O)[C@@H](N)CCCCN)C(=O)N[C@@H](CC(N)=O)C(=O)N[C@@H]([C@@H](C)O)C(=O)N[C@@H](C)C(=O)N[C@@H]([C@@H](C)O)C(=O)N1)[C@@H](C)O)C(C)C)C(=O)NCC(=O)N1CCC[C@H]1C(=O)N[C@H](C(=O)N[C@@H](CC(C)C)C(=O)N1CCC[C@H]1C(=O)N1CCC[C@H]1C(=O)N[C@H](C(=O)N[C@@H](CC(N)=O)C(=O)N[C@H](C(=O)NCC(=O)N[C@@H](CO)C(=O)N[C@@H](CC(N)=O)C(=O)N[C@H](C(=O)N[C@@H](Cc1ccc(O)cc1)C(N)=O)[C@@H](C)O)C(C)C)[C@@H](C)O)C(C)C [rAmy] | 84 ± 11 | – | 66 ± 9 | – | 82 ± 8 | – | 77 ± 5 | – | 36 ± 7 | –
4 | CSCC[C@H](NC(=O)CNC(=O)[C@H](CO)NC(=O)[C@H](Cc1ccccc1)NC(=O)[C@H](CCCNC(=N)N)NC(=O)[C@H](Cc1c[nH]cn1)NC(=O)[C@H](Cc1ccccc1)NC(=O)[C@H](CC(N)=O)NC(=O)[C@H](CC(N)=O)NC(=O)[C@H](CC(C)C)NC(=O)[C@H](CC(N)=O)NC(=O)[C@H](CCCNC(=N)N)NC(=O)[C@H](Cc1c[nH]c2ccccc12)NC(=O)[C@H](Cc1ccc(O)cc1)NC(=O)[C@H](C)NC(=O)[C@H](CO)NC(=O)[C@H](CC(C)C)NC(=O)[C@@H](NC(=O)[C@@H]1CSSC[C@H](N)C(=O)N[C@@H](CO)C(=O)N[C@@H](CC(N)=O)C(=O)N[C@@H](CC(C)C)C(=O)N[C@@H](CO)C(=O)N[C@@H]([C@@H](C)O)C(=O)N1)C(C)C)C(=O)NCC(=O)N[C@@H](Cc1ccccc1)C(=O)NCC(=O)N1CCC[C@H]1C(=O)N[C@@H](CCC(=O)O)C(=O)N[C@H](C(=O)N1CCC[C@H]1C(N)=O)[C@@H](C)O [pCT] (H-CSNLSTCVLSAYWRNLNNFHRFSGMGFGPETP-NH2; disulfide 1-7) | 156 ± 9 | 1.91 | 127 ± 12 | 3.63 | 163 ± 10 | 2.34 | 172 ± 10 | 2.75 | 45 ± 4 | 7.59
5 | CC(C)C[C@H](NC(=O)[C@H](CCCCN)NC(=O)CNC(=O)[C@H](CC(C)C)NC(=O)[C@@H](NC(=O)[C@@H]1CSSC[C@H](N)C(=O)N[C@@H](CO)C(=O)N[C@@H](CC(N)=O)C(=O)N[C@@H](CC(C)C)C(=O)N[C@@H](CO)C(=O)N[C@@H]([C@@H](C)O)C(=O)N1)C(C)C)C(=O)N[C@@H](CO)C(=O)N[C@@H](CCC(N)=O)C(=O)N[C@@H](CCC(=O)O)C(=O)N[C@@H](CC(C)C)C(=O)N[C@@H](Cc1c[nH]cn1)C(=O)N[C@@H](CCCCN)C(=O)N[C@@H](CC(C)C)C(=O)N[C@@H](CCC(N)=O)C(=O)N[C@H](C(=O)N[C@@H](Cc1ccc(O)cc1)C(=O)N1CCC[C@H]1C(=O)N[C@@H](CCCNC(=N)N)C(=O)N[C@H](C(=O)N[C@@H](CC(N)=O)C(=O)N[C@H](C(=O)NCC(=O)N[C@@H](CO)C(=O)NCC(=O)N[C@H](C(=O)N1CCC[C@H]1C(N)=O)[C@@H](C)O)[C@@H](C)O)[C@@H](C)O)[C@@H](C)O [sCT] | 136 ± 5 | – | 106 ± 4 | – | 152 ± 9 | – | 130 ± 4 | – | 107 ± 10 | –
